pIC50: −log10 of the molar value. Values belong to the compound of their own block, whether it stands above or below them.
Legend:
MDA-MB-231 = assay: Antimitotic effects (G2/M cell cycle block, DNA staining, ModFit) on MDA-MB-231; assay type: cell-based, human; details: for % of Taxol (proportion of cells in G2M test/proportion of cells in G2M Taxol): 24 hrs, standard 1 μM Taxol; for pIC50: Homo sapiens, inhibitors added to cells in log-growth for 24 hrs, read-out: IC50 for progression through the cell cycle
Excerpt: (§1) For the initial studies two colon carcinoma cell lines (LIM1215 and SW480) and two breast cancer cell lines (MDA-MB-231 and MCF-7) were used. Taxol was used as comparator in these experiments (Table 1).

LIM1215 = assay: Antimitotic effects (G2/M cell cycle block, DNA staining, ModFit) on LIM1215; assay type: cell-based, human; details: for % of Taxol (proportion of cells in G2M test/proportion of cells in G2M Taxol): 24 hrs, standard 1 μM Taxol; for pIC50: Homo sapiens, inhibitors added to cells in log-growth for 24 hrs, read-out: IC50 for progression through the cell cycle
Excerpt: as §1

[1] = Dose escalation in mice (tolerability and toxicity); assay type: in vivo; details: C57Bl/6 mice, subcutaneous in DMSO, sacrificed 24 hrs post-injection
Procedure: Compound 1 was initially tested for tolerability and toxicity in mice. C57Bl/6 mice (aged 8-12 weeks) were injected subcutaneously with escalating doses of Compound 1 in a constant volume of DMSO. Mice were sacrificed 24 hrs post-injection. There were no adverse effects of doses up to 80 mg/kg within this time-frame. Thus the compound is well tolerated at doses that far exceed the IC50 observed “in vitro”.
These minor skin lesions healed readily within 2-3 days.

MCF-7 = assay: Antimitotic effects (G2/M cell cycle block, DNA staining, ModFit) on MCF-7; assay type: cell-based, human; details: for % of Taxol (proportion of cells in G2M test/proportion of cells in G2M Taxol): 24 hrs, standard 1 μM Taxol; for pIC50: Homo sapiens, MCF7, inhibitors added to cells in log-growth for 24 hrs, read-out: IC50 for progression through the cell cycle
Excerpt: as §1

SW480 = assay: Antimitotic effects (G2/M cell cycle block, DNA staining, ModFit) on SW480; assay type: cell-based, human; details: for % of Taxol (proportion of cells in G2M test/proportion of cells in G2M Taxol): 24 hrs, standard 1 μM Taxol; for pIC50: Homo sapiens, inhibitors added to cells in log-growth for 24 hrs, read-out: IC50 for progression through the cell cycle
Excerpt: as §1

[2] = test system: LIM2537 human colon carcinoma cell line; assay: MTS assay using LIM2537 human colon carcinoma cell line; assay type: cell-based; details: 96 h, LIM2537, 4 days incubation, read-out: IC50 Range
Procedure: • Cells plated at […] in 100 μl medium+5% FCS (+Adds^1): • Cells incubated overnight: • Titrate inhibitors in a fresh plate in 150 μl medium • Transfer 100 μl titrated compounds to matching wells of the cell plate. • Incubate a further 4 days: • Add 10 μl MTS^2 or MTT^3 for 1.5 to 2 hours and read on Multiscanner (wavelengths 492/690) ^1 Additives for culture of LIM cell lines: 10 μM thioglycerol, 0.025 U/ml insulin, 1 μg/ml hydrocortisone. ^2 3-(4,5-dimethylthiazol-2-yl)-5-(3-carboxymethoxyphenyl)-2-(4-sulfophenyl)-2H-tetrazolium. ^3 3-(4,5-Dimethylthiazol-2-yl)-2,5-diphenyltetrazolium bromide
• LIM2537 human colon carcinoma cell line, grown in RPMI+Adds^1+5% FCS
Cells are trypsinized and washed ×2 in medium+5% FCS and plate out at 10^4 cells per well in 100 μl.
Incubate plates o/n 37° C.+5%-10% CO2 incubator.
Inhibitors are dissolved in DMSO to make 10 mM stocks and titrated in a 96 well plate in duplicate to use as the stock for the test plate. Titration range from 40 μM down to […] in ½ dilutions and 100 μl of each dilution transferred to the appropriate wells of the test plate that contains the cells (also in 100 μl) which results in the final concentration of the inhibitors being 20 μM down to 0.01 μM across the rows in duplicate. Three inhibitors are tested per plate (Rows A-F).
Each plate has the following: • Rows A,B: Inhibitor 1 dilutions, 200 μl per well • Rows C,D: Inhibitor 2 dilutions, 200 μl per well • Rows E,F: Inhibitor 3 dilutions, 200 μl per well • Control row G1-6: Medium+5% FCS (for maximum growth) • Control row G7-12: Taxol (250 nM for maximal inhibition) • Control row H: Remove medium from cells and replace with 200 μl Serum Free medium for serum free growth rate.
Incubate plates for 4 days in incubator. Process with MTS or MTT as outlined below.
To each well add 10 μl MTS (Sigma) solution. Incubate MTS for 1.5 to 2 hours and MTT for 4 hours. Stop reaction by adding 10 μl 10% SDS to each well. Read on Multiscan (492/690) plate reader, plot colour change versus concentration of inhibitor to establish the IC50.

tubulin = assay: Tubulin polymerization in intact cells (soluble vs polymerized tubulin, immunoblot); assay type: cell-based; details: LIM 1215 cells, NP-40 lysis, immunoblot with β-tubulin antibodies
Procedure: Equal volumes of supernatant and resuspended insoluble material were analyzed by SDS/PAGE and immunoblotting with antibodies to β-tubulin. S=soluble and P=polymerized tubulin. […] To monitor the effects of triazines on tubulin, the present inventors tested tubulin polymerization in intact cells following exposure to the drug. Cells treated with Taxol or with compound 3 were lysed in hypotonic buffer containing 0.5% NP-40 and the cellular extracts were centrifuged at high speed. Polymerized tubulin is detergent-insoluble: thus after this treatment soluble tubulin is recovered in the supernatants (S), and polymerized tubulin in the cellular pellets (P). The relative proportion of the two forms was monitored by SDS/PAGE and immunoblotting with tubulin-specific antibodies.

Compound: COc1ccc(CNc2nc(NCc3ccc(OC)cc3)nc(NN3CC(=O)NC3=O)n2)cc1 [Compound 1, 1-[4,6-Bis-(4-methoxybenzylamino)-{1,3,5}-triazin-2-yl-amino]-imidazolidine-2,4-dione]
- % of Taxol (proportion of cells in G2M test/proportion of cells in G2M Taxol) (MDA-MB-231): 94%
- pIC50 (MDA-MB-231): 7.89
- % of Taxol (proportion of cells in G2M test/proportion of cells in G2M Taxol) (LIM1215): 105%
- pIC50 (LIM1215): 7.15
- Doses with no adverse effects [1]: up to 80 mg/kg
- % of Taxol (proportion of cells in G2M test/proportion of cells in G2M Taxol) (MCF-7): 108%
- pIC50 (MCF-7): 8.05
- % of Taxol (proportion of cells in G2M test/proportion of cells in G2M Taxol) (SW480): 120%
- pIC50 (SW480): 7.30

Compound: COc1ccc(CNc2nc(NCc3ccc(OC)cc3)nc(NC3NC(=O)N(C)C3=O)n2)cc1 (centres unmarked) [Compound 3, 5-[4,6-Bis-(4-methoxy-benzylamino)-[1,3,5]-triazin-2-ylamino]-3-methyl-imidazolidine-2,4-dione]
- % of Taxol (proportion of cells in G2M test/proportion of cells in G2M Taxol) (MDA-MB-231): 93%
- pIC50 (MDA-MB-231): 5.52
- % of Taxol (proportion of cells in G2M test/proportion of cells in G2M Taxol) (LIM1215): 108%
- pIC50 (LIM1215): 5.52
- % of Taxol (proportion of cells in G2M test/proportion of cells in G2M Taxol) (MCF-7): 102%
- pIC50 (MCF-7): 6.35
- % of Taxol (proportion of cells in G2M test/proportion of cells in G2M Taxol) (SW480): 106%
- pIC50 (SW480): 5.84

Compound: COc1ccc(CNc2nc(NCc3ccc(CN4CCCCC4)cc3)nc(NN3CC(=O)NC3=O)n2)cc1 [Compound 13, 1-((4-((4-methoxybenzyl)amino)-6-((4-(piperidin-1-ylmethyl)benzyl)amino)-1,3,5-triazin-2-yl)amino)imidazolidine-2,4-dione]
- pIC50 [2]: 6.00 to 7.00

Compound: CCN(CC)Cc1ccc(CNc2nc(NCc3ccc(OC)cc3)nc(NN3CC(=O)NC3=O)n2)cc1 [Compound 15, 1-((4-((4-((diethylamino)methyl)benzyl)amino)-6-((4-methoxybenzyl)amino)-1,3,5-triazin-2-yl)amino)imidazolidine-2,4-dione]
- pIC50 [2]: 5.00 to 6.00

Compound: COc1ccc(CNc2nc(NCc3ccc(CN4CCN(C)CC4)cc3)nc(NN3CC(=O)NC3=O)n2)cc1 [Compound 16, 1-((4-((4-methoxybenzyl)amino)-6-((4-((4-methylpiperazin-1-yl)methyl)benzyl)amino)-1,3,5-triazin-2-yl)amino)imidazolidine-2,4-dione]
- pIC50 [2]: ≥ 7.00

Compound: COc1ccc(CNc2nc(NCc3ccc(N4CCCCC4)cc3)nc(NN3CC(=O)NC3=O)n2)cc1 [Compound 17, 1-((4-((4-methoxybenzyl)amino)-6-((4-(piperidin-1-yl)benzyl)amino)-1,3,5-triazin-2-yl)amino)imidazolidine-2,4-dione]
- pIC50 [2]: ≥ 7.00

Compound: COc1ccc(CNc2nc(NCc3ccc(N4CCOCC4)cc3)nc(NN3CC(=O)NC3=O)n2)cc1 [Compound 18, 1-((4-((4-methoxybenzyl)amino)-6-((4-morpholinobenzyl)amino)-1,3,5-triazin-2-yl)amino)imidazolidine-2,4-dione]
- pIC50 [2]: 6.00 to 7.00

Compound: COc1ccc(CNc2nc(NCc3ccc(N4CCN(C)CC4)cc3)nc(NN3CC(=O)NC3=O)n2)cc1 [Compound 19, 1-((4-((4-methoxybenzyl)amino)-6-((4-(4-methylpiperazin-1-yl)benzyl)amino)-1,3,5-triazin-2-yl)amino)imidazolidine-2,4-dione]
- pIC50 [2]: 6.00 to 7.00

Compound: CCN(CC)CCOc1ccc(CNc2nc(NCc3ccc(OC)cc3)nc(NN3CC(=O)NC3=O)n2)cc1 [Compound 23, 1-((4-((4-(2-(diethylamino)ethoxy)benzyl)amino)-6-((4-methoxybenzyl)amino)-1,3,5-triazin-2-yl)amino)imidazolidine-2,4-dione]
- pIC50 [2]: 5.00 to 6.00

Compound: COc1ccc(CNc2nc(NCc3ccc(OCCN4CCOCC4)cc3)nc(NN3CC(=O)NC3=O)n2)cc1 [Compound 24, 1-((4-((4-methoxybenzyl)amino)-6-((4-(2-morpholinoethoxy)benzyl)amino)-1,3,5-triazin-2-yl)amino)imidazolidine-2,4-dione]
- pIC50 [2]: 6.00 to 7.00

Now from value to compound, other results behind:

- pIC50 [2]: < 5.00
Compound: COc1ccc(CNc2nc(NCc3ccc(CN4CCOCC4)cc3)nc(NN3CC(=O)NC3=O)n2)cc1 [Compound 14, 1-((4-((4-methoxybenzyl)amino)-6-((4-(morpholinomethyl)benzyl)amino)-1,3,5-triazin-2-yl)amino)imidazolidine-2,4-dione]

- pIC50 [2]: 6.00 to 7.00
Compound: COc1ccc(CNc2nc(NCc3cccc(N4CCCCC4)c3)nc(NN3CC(=O)NC3=O)n2)cc1 [Compound 20, 1-((4-((4-methoxybenzyl)amino)-6-((3-(piperidin-1-yl)benzyl)amino)-1,3,5-triazin-2-yl)amino)imidazolidine-2,4-dione]

- pIC50 [2]: 5.00 to 6.00
Compound: COc1ccc(CNc2nc(NCc3cccc(N4CCOCC4)c3)nc(NN3CC(=O)NC3=O)n2)cc1 [Compound 21, 1-((4-((4-methoxybenzyl)amino)-6-((3-morpholinobenzyl)amino)-1,3,5-triazin-2-yl)amino)imidazolidine-2,4-dione]

- pIC50 [2]: < 5.00
Compound: COc1ccc(CNc2nc(NCc3cccc(N4CCN(C)CC4)c3)nc(NN3CC(=O)NC3=O)n2)cc1 [Compound 22, 1-((4-((4-methoxybenzyl)amino)-6-((3-(4-methylpiperazin-1-yl)benzyl)amino)-1,3,5-triazin-2-yl)amino)imidazolidine-2,4-dione]

- pIC50 (MDA-MB-231): 8.10
- pIC50 (MCF-7): 8.10
- pIC50 (SW480): 8.10
Compound: CC(=O)O[C@H]1C(=O)[C@@]2(C)[C@H]([C@H](OC(=O)c3ccccc3)[C@]3(O)C[C@H](OC(=O)[C@H](O)[C@@H](NC(=O)c4ccccc4)c4ccccc4)C(C)=C1C3(C)C)[C@]1(OC(C)=O)CO[C@@H]1C[C@@H]2O [Taxol, reference compound]
- % of Taxol (proportion of cells in G2M test/proportion of cells in G2M Taxol) (MDA-MB-231): 100%
- Stabilization of tubulin in treated cells (soluble vs polymerized) (tubulin): strongly stabilized tubulin in a dose-dependent manner
- % of Taxol (proportion of cells in G2M test/proportion of cells in G2M Taxol) (LIM1215): 100%
- pIC50 (LIM1215): 8.00
- % of Taxol (proportion of cells in G2M test/proportion of cells in G2M Taxol) (MCF-7): 100%
- % of Taxol (proportion of cells in G2M test/proportion of cells in G2M Taxol) (SW480): 100%
